These results are taken from US20240008473A1, “DEVICE AND METHOD TO DISTRIBUTE AIR TREATMENT SUBSTANCE” (Discovery Purchaser Corporation, priority 2020, published 2024).

For data set [1] the following is noted: 25° C.; cited from earlier work.
Data set [2] can be described thus: TGA (thermogravimetric analysis) measurements on TFL technical. In kind it is physicochemical. As for the experimental part:
TGA (Thermogravimetric analysis) measurements were performed on TFL technical (release profile measurements done at isothermal (55° C.) and at constant temperature increase ratio (3K/mn)), and from that, it was discovered that release kinetic at “usual” candle melting temp (50-70° C.) would not allow enough TFL release to get expected efficacy, and that TFL release is not linear. It was determined as well that release onset for TFL is around 100° C. and far higher release ratio occurs at higher temperatures. The calculated estimated ideal temperature for TFL, for outdoor use, from the TGA measurement would be around 150° C.
TGA (Thermal Gravimetric Analysis) for TFL was run, which allows characterization of the release profile of an active ingredient as a function of the temperature. […] Thus, TFL release was pretty low in the range of the “usual candle wax melting temperature”, and it was not be possible to get the needed release rate. (which is the reason why TFL was mainly burnt before being released when incorporated directly into a candle). At such a temperature range, it would hardly possible (considering the potential TFL loading into the candle and candle size) to reach a release above 2-3 mg/h which is far below our 20-25 mg/h needed for outdoor use. • Based on the TGA measurement, it can be seen that to reach the desired 25 mg/h release rate for TFL, the pod temp should be >130-140° C.
(before a typical flame temperature). […] This amount is much lower than the desired 25 mg/h release rate.

Setting [3] is: 15 mg flakes, temperature ramp 3K/min, continuous N2-flow.

For the compound `C#CCN1CC(=O)N(COC(=O)[C@@H]2C(C=C(C)C)C2(C)C)C1=O` (mixture of isomers) [Imiprothrin], the Vapor pressure in data set [1] was 1.85 mPa @25 °C.
As for `C#CC(OC(=O)C1C(C=C(C)C)C1(C)C)/C(C)=C/CC` (centres unmarked) [Empenthrin], in data set [1], the Vapor pressure was 15.4 mPa @25 °C.
Turning to `C/C=C/C1C(C(=O)OCc2c(F)c(F)c(COC)c(F)c2F)C1(C)C` (centres unmarked) [Metofluthrin], in data set [1], the Vapor pressure was 1.96 mPa @25 °C.
With `C#CCC1=C(C)C(OC(=O)C2C(C=C(C)C)C2(C)C)CC1=O` (centres unmarked) [Prallethrin], the Vapor pressure in data set [1] was 0.6 mPa @25 °C.
Regarding `CC=CC1C(C(=O)OCc2c(F)c(F)c(C)c(F)c2F)C1(C)C` (centres unmarked) [Profluthrin], the Vapor pressure in data set [1] is 10.3 mPa @25 °C.
For `CC1(C)[C@H](C=C(Cl)Cl)[C@H]1C(=O)OCc1c(F)c(F)cc(F)c1F` [TFL, Transfluthrin], in data set [2] (setting [3]), the complete evaporation came to 255 °C and the onset of evaporation result was “around 100 °C”. The “reachable release at usual candle wax melting temperature” value in data set [2] (50-80° C., TFL loaded into candle) was 2 to 3 mg/h. Further, the “release onset for TFL” value in data set [2] (TGA on TFL technical, isothermal (55° C.) and 3K/mn ramp) is “around 100 °C”. Also, in data set [2] (TGA, FIG. 9A), the “active ingredient release below 100-110° C.” value is on record as “very little release”. In data set [2] (at 55° C. candle melting temperature, TGA conditions), this compound had a TFL evaporation rate of under 0.03 mg/h. Further, in data set [2] (based on the TGA measurement), the “pod temp to reach the desired 25 mg/h release rate” value was 130-140 °C. The Vapor pressure in data set [1] was 2 mPa @25 °C.
For the compound `CC(C)=CC1C(C(=O)OCN2C(=O)C3=C(CCCC3)C2=O)C1(C)C` (centres unmarked) [Tetramethrin], in data set [1], the Vapor pressure was 2.11 mPa @25 °C.
